From patent US5700446A, “Synthesis of ferrocenyl phenyltropane analogs and their radio-transformation to technetium neuroprobes for mapping monoamine reuptake sites” (Neuro Imaging Technologies, LLC, priority 1996, dated 1997)

How the values were obtained:
[1] = biological target: T1, dopamine transporter (Rattus norvegicus, UniProt P23977); test: Radioreceptor binding assay, dopamine transporter ([3H]GBR-12935), rat brain corpus striatum membranes; conditions: for Ki: [3H]GBR-12935 0.4 nM, 45 min at 4° C., Tris buffer pH 7.4, rat corpus striatum, ±SEM, read-out: Dopamine Transporter (DAT) (Ki); for DAT/5-HTT Selectivity: ratio of Ki for the dopamine transporter to the Ki for the serotonin transporter
T1 construct: crude membrane fraction of homogenates of rat brain corpus striatum (for the dopamine transporter); from tissue; host or cells: rat brain corpus striatum, crude membrane fraction

[2] = biological target: T2, serotonin transporter (Rattus norvegicus, UniProt P31652); test: Radioreceptor binding assay, serotonin transporter ([3H]paroxetine), rat frontoparietal cerebral cortex membranes; conditions: [3H]paroxetine 0.2 nM, 60 min at 20° C., Tris buffer pH 7.4, rat frontoparietal cortex; ±SEM; read-out: Serotonin Transporter (5-HTT) (Ki)
T2 construct: rat brain corpus striatum (for the dopamine transporter) or frontoparietal cerebral cortex (for the serotonin and norepinephrine transporters); from tissue; host or cells: rat frontoparietal cerebral cortex, crude membrane fraction
T2 sequence (P31652 whole entry): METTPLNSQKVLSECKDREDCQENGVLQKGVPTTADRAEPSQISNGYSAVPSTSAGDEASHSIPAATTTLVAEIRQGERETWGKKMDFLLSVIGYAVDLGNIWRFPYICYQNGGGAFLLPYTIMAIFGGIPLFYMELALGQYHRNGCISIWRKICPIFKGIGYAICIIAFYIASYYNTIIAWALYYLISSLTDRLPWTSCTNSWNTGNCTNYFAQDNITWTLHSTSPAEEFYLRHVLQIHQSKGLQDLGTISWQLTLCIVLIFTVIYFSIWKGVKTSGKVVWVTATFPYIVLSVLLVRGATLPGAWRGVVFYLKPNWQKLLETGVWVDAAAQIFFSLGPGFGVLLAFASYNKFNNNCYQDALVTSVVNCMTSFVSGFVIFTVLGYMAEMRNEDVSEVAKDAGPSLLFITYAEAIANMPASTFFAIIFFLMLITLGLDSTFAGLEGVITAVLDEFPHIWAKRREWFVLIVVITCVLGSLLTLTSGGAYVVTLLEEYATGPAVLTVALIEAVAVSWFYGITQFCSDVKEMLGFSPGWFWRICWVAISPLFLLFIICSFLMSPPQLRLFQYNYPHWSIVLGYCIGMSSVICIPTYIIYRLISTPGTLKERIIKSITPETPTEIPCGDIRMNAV

T1 sequence (P23977 whole entry): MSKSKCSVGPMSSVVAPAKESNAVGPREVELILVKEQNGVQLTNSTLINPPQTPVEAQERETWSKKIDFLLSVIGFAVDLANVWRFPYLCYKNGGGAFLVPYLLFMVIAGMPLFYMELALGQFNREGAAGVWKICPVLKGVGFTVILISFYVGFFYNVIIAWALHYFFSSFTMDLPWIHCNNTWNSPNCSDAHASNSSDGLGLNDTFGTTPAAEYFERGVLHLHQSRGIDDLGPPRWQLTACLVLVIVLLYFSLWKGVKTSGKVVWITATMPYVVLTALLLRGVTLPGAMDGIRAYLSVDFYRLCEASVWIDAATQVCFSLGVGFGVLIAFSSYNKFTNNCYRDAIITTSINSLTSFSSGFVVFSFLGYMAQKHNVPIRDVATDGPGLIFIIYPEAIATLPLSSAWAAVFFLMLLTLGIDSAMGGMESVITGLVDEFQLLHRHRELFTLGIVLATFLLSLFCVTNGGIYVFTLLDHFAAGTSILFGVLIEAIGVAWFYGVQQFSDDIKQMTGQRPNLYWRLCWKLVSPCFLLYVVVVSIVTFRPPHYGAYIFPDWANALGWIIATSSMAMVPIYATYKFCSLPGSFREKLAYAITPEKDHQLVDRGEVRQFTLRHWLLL

With “3β-(4-Chlorophenyl)-2β-tricarbonylrheniumcyclopentadienylcarboxymethyl)tropane [RBI-219]” the Ki [1] was 4.41 ± 0.76 nM, the “DAT/5-HTT Selectivity” value [1] was 0.37 and the Ki [2] was 11.9 ± 1.7 nM.

In the case of “3β-(4-iodophenyl)-2β-(tricarbonylrheniumcyclopentadienylcarboxymethyl)tropane [RBI-211]”, the Ki [1] is reported as 7.22 ± 1.06 nM, the “DAT/5-HTT Selectivity” value [1] is reported as 0.21 and the Ki [2] is reported as 34.6 ± 3.4 nM.

For “N-(tricarbonylmanganesecyclopentadienylbutan-1-one-4-yl)-2β-carbomethoxy-3β-(4-chlorophenyl)nortropane [RBI-233]”, the Ki [1] was 1.67 ± 0.39 nM, the “DAT/5-HTT Selectivity” value [1] was 2 and the Ki [2] was 0.84 ± 0.06 nM.

In the case of “N-(tricarbonylrheniumcyclopentadienylbutan-1-one-4-yl)-2β-carbomethoxy-3β-(4-chlorophenyl)nortropane [RBI-235]”, the Ki [1] is reported as 1.29 ± 0.1 nM, the “DAT/5-HTT Selectivity” value [1] is reported as 3.49 and the Ki [2] is reported as 0.37 ± 0.04 nM.

For “N-(tricarbonylrheniumcyclopentadienylcarboxypropyl)-2β-carbomethoxy-3β-(4-chlorophenyl)nortropane [RBI-232]”, the Ki [1] was 2.66 ± 0.33 nM, the “DAT/5-HTT Selectivity” value [1] was 4.75 and the Ki [2] was 0.56 ± 0.08 nM.
